Molecules are shown by their SMILES.

What all share (type): cell-based
In assay [1] the target is T1, Sodium-dependent serotonin transporter (Homo sapiens, UniProt P31645). Kind of assay: Inhibition of [3H]-5-HT reuptake in human SERT transfected into HEK293 cells by liquid scintillation counting method.
Target sequence in this assay (P31645 whole entry): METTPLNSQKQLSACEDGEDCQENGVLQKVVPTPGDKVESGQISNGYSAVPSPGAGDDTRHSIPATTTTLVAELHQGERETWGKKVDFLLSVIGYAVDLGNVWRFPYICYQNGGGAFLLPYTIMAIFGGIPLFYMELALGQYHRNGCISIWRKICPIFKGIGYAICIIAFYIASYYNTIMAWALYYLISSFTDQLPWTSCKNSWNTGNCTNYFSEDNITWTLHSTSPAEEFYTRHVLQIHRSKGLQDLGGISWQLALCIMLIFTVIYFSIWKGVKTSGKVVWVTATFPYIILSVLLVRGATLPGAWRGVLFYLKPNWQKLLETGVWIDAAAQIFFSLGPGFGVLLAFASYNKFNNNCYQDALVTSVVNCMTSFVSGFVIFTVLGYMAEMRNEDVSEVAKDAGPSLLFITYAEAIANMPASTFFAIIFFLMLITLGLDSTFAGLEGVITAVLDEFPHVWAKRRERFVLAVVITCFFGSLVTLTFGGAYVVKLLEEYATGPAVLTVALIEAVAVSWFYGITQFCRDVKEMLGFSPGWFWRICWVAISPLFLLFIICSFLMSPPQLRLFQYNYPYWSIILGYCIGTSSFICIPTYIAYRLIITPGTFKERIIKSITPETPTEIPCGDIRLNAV
Assay [2] deals with T2, Sodium-dependent noradrenaline transporter (Homo sapiens, UniProt P23975). Kind of assay: Inhibition of [3H]-NE reuptake in human NET transfected into HEK293 cells by liquid scintillation counting method.
T2 sequence (P23975 whole entry): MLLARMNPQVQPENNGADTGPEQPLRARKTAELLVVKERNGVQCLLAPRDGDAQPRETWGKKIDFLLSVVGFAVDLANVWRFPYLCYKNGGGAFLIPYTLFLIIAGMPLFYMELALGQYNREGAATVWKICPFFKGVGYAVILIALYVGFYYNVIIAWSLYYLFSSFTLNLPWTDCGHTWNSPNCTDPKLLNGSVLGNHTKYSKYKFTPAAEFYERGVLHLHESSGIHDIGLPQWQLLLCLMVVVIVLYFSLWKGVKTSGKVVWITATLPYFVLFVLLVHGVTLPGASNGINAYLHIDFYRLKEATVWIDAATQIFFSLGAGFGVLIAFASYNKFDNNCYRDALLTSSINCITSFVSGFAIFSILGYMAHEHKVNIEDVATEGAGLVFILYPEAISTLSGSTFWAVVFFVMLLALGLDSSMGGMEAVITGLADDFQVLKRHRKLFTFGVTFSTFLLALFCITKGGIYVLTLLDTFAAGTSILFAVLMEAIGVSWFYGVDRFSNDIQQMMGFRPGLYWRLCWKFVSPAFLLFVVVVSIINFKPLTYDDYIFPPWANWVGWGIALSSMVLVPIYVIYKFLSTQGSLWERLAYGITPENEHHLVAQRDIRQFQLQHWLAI
In assay [3] the target is T2, Sodium-dependent noradrenaline transporter. Kind of assay: Inhibition of [3H]-NE reuptake in human NET transfected into HEK293 cells at 10 uM by liquid scintillation counting method relative to venlafaxine HCl.
Assay [4] has as its target T1, Sodium-dependent serotonin transporter. Kind of assay: Inhibition of [3H]-5-HT reuptake in human SERT transfected into HEK293 cells at 1 uM by liquid scintillation counting method relative to venlafaxine HCl.
Target sequence in this assay (P31645 whole entry, looked up): as the sequence (P31645 whole entry) above
Assay [5] addresses T2, Sodium-dependent noradrenaline transporter. Kind of assay: Inhibition of [3H]-NE reuptake in human NET transfected into HEK293 cells at 1 uM by liquid scintillation counting method relative to […].

A word on the IC50: it is the concentration that inhibits the measured activity by half. The low end stands for inhibition by little substance, the high end for a need for much substance. On to `COc1ccccc1N1CCN(CCCN2CCC(Cc3ccccc3)CC2)CC1`, for which the IC50 in assay [1] stood at 1760 nM; in assay [2] it was 890 nM. For the same compound, the fold change (FC) in assay [3] amounted to 1.36; in assay [4], 2.4.
Take `Cc1cccc(C)c1N1CCN(CCN2CCC(Cc3ccccc3)CC2)CC1`: the fold change (FC) in assay [3] amounted to 1.26; in assay [4], 0.93.
Regarding `c1ccc(CC2CCN(CCCN3CCN(c4ncccn4)CC3)CC2)cc1`, the fold change (FC) in assay [3] turned out to be 1.01; in assay [4], 0.08.
Consider `c1ccc(CC2CCN(CCCN3CCN(c4ccccc4)CC3)CC2)cc1`, for which the IC50 came out at 1360 nM in assay [1] and 600 nM in assay [2]. The values for the fold change (FC) in assay [3] and in assay [4] were 1.51 and 0.58, respectively.
For the compound `Clc1cccc(N2CCN(CCN3CCC(Cc4ccccc4)CC3)CC2)c1`, the fold change (FC) was found to be 1.29 in assay [3] and 0.41 in assay [4].
On the same counts, the results for `c1ccc(CC2CCN(CCN3CCN(c4ccccc4)CC3)CC2)cc1` are 1 and 0.89.
The matching figures for `Fc1ccc(N2CCN(CCCN3CCC(Cc4ccccc4)CC3)CC2)cc1`: 1.4 and 0.27.
As for `FC(F)(F)c1ccc(N2CCN(CCN3CCC(Cc4ccccc4)CC3)CC2)cc1`, the fold change (FC) in assay [3] came out at 1.26; in assay [4] it was 0.69.
For `Brc1ccc(N2CCN(CCCN3CCC(Cc4ccccc4)CC3)CC2)cc1`, the half-maximal inhibitory concentration (IC50) is 2250 nM in assay [1] and 610 nM in assay [2]. The results for the fold change (FC) in assay [3] and in assay [4] were 1.6 and 0.87, respectively.
The matching figures for `Clc1ccc(N2CCN(CCCN3CCC(Cc4ccccc4)CC3)CC2)cc1`: 2030 nM, 530 nM, 1.46 and 0.44.
With `Clc1cccc(N2CCN(CCCN3CCC(Cc4ccccc4)CC3)CC2)c1Cl`, the IC50 in assay [1] was found to be 2510 nM; in assay [2] it was 560 nM. Further, the results for the fold change (FC) in assay [3] and in assay [4] were 1.63 and 0.79, respectively.
In the case of `c1ccc(CC2CCN(CCN3CCN(c4ccccn4)CC3)CC2)cc1`, the figures for the fold change (FC) in assay [5] and in assay [4] were 0.08 and 0.31, respectively.
For `Brc1ccc(N2CCN(CCN3CCC(Cc4ccccc4)CC3)CC2)cc1`, the half-inhibitory concentration (IC50) in assay [1] was 4920 nM; in assay [2], 2100 nM. Moreover, the results for the fold change (FC) in assay [3] and in assay [4] were 1.31 and 1.01, respectively.
Consider `c1ccc(CC2CCN(CCN3CCN(c4ncccn4)CC3)CC2)cc1`, for which the fold change (FC) is -0.05 in assay [5] and 0.33 in assay [4].
Turning to `FC(F)(F)c1ccc(N2CCN(CCCN3CCC(Cc4ccccc4)CC3)CC2)cc1`, the half-inhibitory concentration (IC50) in assay [1] stood at 2610 nM; in assay [2], 1170 nM. For the same compound, the fold change (FC) in assay [3] was determined as 1.34; in assay [4] it was 0.76.
Regarding `Clc1ccc(N2CCN(CCN3CCC(Cc4ccccc4)CC3)CC2)c(Cl)c1`, the concentration for half-maximal inhibition (IC50) in assay [1] came out at 4320 nM; in assay [2] it was 2500 nM. For the same compound, the values for the fold change (FC) in assay [3] and in assay [4] were 1.29 and 0.85, respectively.
As for `Clc1ccc(N2CCN(CCCN3CCC(Cc4ccccc4)CC3)CC2)c(Cl)c1`, the IC50 came out at 1460 nM in assay [1] and 760 nM in assay [2]. In addition, the fold change (FC) in assay [3] is 1.45; in assay [4], 1.06.
The matching figures for `Cc1cccc(C)c1N1CCN(CCCN2CCC(Cc3ccccc3)CC2)CC1`: 2000 nM, 1070 nM, 1.37 and 2.83.
For `Clc1ccc(N2CCN(CCN3CCC(Cc4ccccc4)CC3)CC2)cc1`, the fold change (FC) in assay [3] came out at 1.18; in assay [4] it was 0.56.
As for `COc1ccccc1N1CCN(CCN2CCC(Cc3ccccc3)CC2)CC1`, the fold change (FC) in assay [5] was 0.2; in assay [4] it was 0.27.
With `Fc1ccc(N2CCN(CCN3CCC(Cc4ccccc4)CC3)CC2)cc1`, the fold change (FC) was determined as 1.16 in assay [3] and 0.41 in assay [4].
Consider `Clc1cccc(N2CCN(CCCN3CCC(Cc4ccccc4)CC3)CC2)c1`, for which the figures for the IC50 in assay [1] and in assay [2] were 1180 nM and 380 nM, respectively. Besides, the fold change (FC) in assay [3] was 1.41; in assay [4], 0.69.
On to `c1ccc(CC2CCN(CCCN3CCN(c4ccccn4)CC3)CC2)cc1`, for which the fold change (FC) in assay [3] is 1.23; in assay [4], 0.32.
Turning to `Clc1cccc(N2CCN(CCN3CCC(Cc4ccccc4)CC3)CC2)c1Cl`, the values for the fold change (FC) in assay [5] and in assay [4] were 0.41 and 0.64, respectively.

The values above are taken from ChEMBL document CHEMBL3774305, “Design, synthesis, and biological evaluation of arylpiperazine-benzylpiperidines with dual serotonin and norepinephrine reuptake inhibitory activities” (Bioorg Med Chem, 2016).
